Laboratory results: US20090004118A1, “Multifunctional Nanoparticle Conjugates And Their Use” (priority 2004, published 2009)

Key:
[1] = tested on: MCF-10A cells (normal breast cells); test: MTT cytotoxicity assay, MCF-10A cells; format: cell-based, Human; details: compared to cells treated with Paclitaxel-Heparin-FA
tubulin = test: Tubulin polymerization assay; details: 10 μM paclitaxel equivalent, absorbance 340 nm, FIG. 3
tumor cell cultures = details: cited from earlier work
factor Xa = test: Factor Xa chromogenic assay (anti Factor Xa heparin activity); format: biochemical; details: FIG. 2

Compound: Nc1nc2ncc(CNc3ccc(C(=O)N[C@@H](CCC(=O)O)C(=O)O)cc3)nc2c(=O)[nH]1 [free folate, folic acid]
- viability of normal cells [1]: relatively low

Compound: CC(=O)O[C@H]1C(=O)[C@@]2(C)[C@H]([C@H](OC(=O)c3ccccc3)[C@]3(O)C[C@H](OC(=O)[C@H](O)[C@@H](NC(=O)c4ccccc4)c4ccccc4)C(C)=C1C3(C)C)[C@]1(OC(C)=O)CO[C@@H]1C[C@@H]2O [paclitaxel]
- ability to induce microtubule assembly (tubulin polymerization) (tubulin): clear increase in absorbance

Compound: calicheamicin
- IC50 values for inhibition of growth of tumor cell cultures (tumor cell cultures): low picomolar range

Compound: dynemicin
- IC50 values for inhibition of growth of tumor cell cultures (tumor cell cultures): low picomolar range

Compound: esperamicin
- IC50 values for inhibition of growth of tumor cell cultures (tumor cell cultures): low picomolar range

Compound: heparin
- bioactivity measured by factor Xa chromogenic assay (factor Xa): 179 IU/mg
